Experimental data: US20060140872A1, “Novel signaling pathway for the production of inglammatory pain and neuropathy” (KOWA CO., LTD., priority 2003, published 2006)

Test system: allergic contact dermatitis (picryl chloride-induced dermatitis)
Assay: Mouse model of picryl chloride-induced dermatitis (auricle thickness)
Assay type: in vivo, mouse (female BALB/C)
Conditions: applied on left auricle 1 hour before induction; thickness 24 hours after induction; dose not given; FIG. 2

COc1cccc(-c2cc(=O)c3ccccc3o2)c1N [PD98059, 2-(2-amino-3-methoxyphenyl)-4-oxo-4H-[1]benzopyran]
suppressive action for allergic contact dermatitis (difference in auricle thickness): exhibited suppressive action for allergic contact dermatitis
